The values below come from patent publication US10323028B2, “1,3,4-thiadiazole compounds and their use in treating cancer” (AstraZeneca AB, priority 2015, dated 2019).

SMILES strings stand for the structures.

One assay relates to NCI-H1703 cells. Put plainly: GLS Cell Proliferation Assay (NCI-H1703 cell proliferation). Type of assay: cell-based. Conditions: Homo sapiens, NCI-H1703, 120 h, NCI-H1703 cells, 5 days; read-out: Assay c) Prolif Mean IC50. The text has this:
The following assays were used to measure the effects of the compounds described herein: a) GLS Enzyme Potency Assay; b) GLS Cell Potency Assay; c) GLS Cell Proliferation Assay. During the description of the assays, generally: • i. The following abbreviations have been used: CO2=Carbon dioxide; DMEM=Dulbecco's Modified Eagle Medium; DMSO=Dimethyl sulphoxide; EDTA=Ethylenediaminetetraacetic acid; EGTA=Ethylene glycol tetraacetic acid; FCS=Foetal calf serum; h=Hour(s); NBS=Non-binding surface; SDS=Sodium dodecyl sulphate; TRIS=Tris(Hydroxymethyl)aminomethane. • ii. IC50 values were calculated using a smart fitting model in Genedata.
Assay c): GLS Cell Proliferation Assay
The ability of compounds to inhibit cell growth was measured using a 384 well plate NCI-H1703 cell proliferation assay. NCI-H1703 cells were grown in phenol red free RPMI1640, 10% FCS and 2 mM glutamine and seeded at a density of 750 cells per well in 40 μl of growth medium into clear-bottom 384 well assay plates (Corning product code 3712) and incubated for 24 h at 37° C., 5% CO2. […] DMSO concentration was maintained at 0.3% by back filling with DMSO solution. Plates were incubated for 5 days at 37° C., 5% CO2, Sytox Green and Saponin added to final concentration of 2 μM and 0.25% respectively and incubated for 6 h prior to analysis. […] IC50 values were calculated by curve fitting to max inhibition of day zero growth using GeneData software analysis.
By IC50 is commonly meant the concentration that gives 50% inhibition. Regarding `COc1cc([C@H](OC)C(=O)Nc2nnc(N[C@@H]3CCN(c4cccnn4)C3)s2)cc(N2CC(F)C2)c1` (single isomer, unassigned) [10(b)], the IC50 amounted to 43.4 nM. With `CO[C@H](C(=O)Nc1nnc(N[C@@H]2CCN(c3cccnn3)C2)s1)c1ccc(F)c(N2CC(F)C2)c1` (single isomer, unassigned) [Example 8(a)], the IC50 stood at 57.6 nM.

As for `COc1cc(OC(F)(F)F)cc([C@H](OC)C(=O)Nc2nnc(N[C@@H]3CCN(c4cccnn4)C3)s2)c1` (single isomer, unassigned) [Example 11(a)], the IC50 came to 1.7 nM.

The assay is the same for the next values; noted with them: NCI-H1703 cells, 5 days; read-out: Assay c) Prolif Mean IC50.
For the compound `CO[C@H](C(=O)Nc1nnc(N[C@@H]2CCN(c3cccnn3)C2)s1)c1cccc(N2CC(F)(F)C2)c1` (single isomer, unassigned) [2(b)], the concentration for half-maximal inhibition (IC50) was 28.6 nM.

Turning to `COC[C@H](C(=O)Nc1nnc(N[C@@H]2CCN(c3cccnn3)C2)s1)c1cccc(OC)c1` (single isomer, unassigned) [5(b)], the IC50 came to 120 nM. Still for that read-out and setting: for `COC1CN(c2cccc([C@H](OC)C(=O)Nc3nnc(N[C@@H]4CCN(c5ccc(F)nn5)C4)s3)c2)C1` (single isomer, unassigned) [9(b)] the value was 122 nM.

With `COc1cc(OC(F)(F)F)cc([C@H](OC)C(=O)Nc2nnc(N[C@@H]3CCN(c4cccnn4)C3)s2)c1` (single isomer, unassigned) [11(b)], the IC50 turned out to be 1.04 nM. With `COC1CN(c2cccc([C@H](OC)C(=O)Nc3nnc(N[C@@H]4CCN(c5ccc(C)nn5)C4)s3)c2)C1` (single isomer, unassigned) [12(b)], the IC50 stood at 524 nM. On the same count and under the same terms, the value for `COC1CN(c2cccc([C@H](OC)C(=O)Nc3nnc(N[C@@H]4CCN(c5nccnn5)C4)s3)c2)C1` (single isomer, unassigned) [13(b)] was 497 nM; that for `CCO[C@H](C(=O)Nc1nnc(N[C@@H]2CCN(c3cccnn3)C2)s1)c1cccc(OC(F)F)c1` (single isomer, unassigned) [17(b)] was 34.9 nM; that for `CCO[C@H](C(=O)Nc1nnc(N[C@@H]2CCN(c3cccnn3)C2)s1)c1cccc(OC(F)(F)F)c1` (single isomer, unassigned) [19(b)] was 7.59 nM. As for `CO[C@H](C(=O)Nc1nnc(N[C@@H]2CCN(c3cccnn3)C2)s1)c1ccc(F)c(OC(F)(F)F)c1` (single isomer, unassigned) [20(b)], the 50% inhibitory concentration (IC50) is 2.65 nM. On the same count and under the same terms, for `CO[C@H](C(=O)Nc1nnc(N[C@@H]2CCN(c3cccnn3)C2)s1)c1cccc(N2CC(F)(F)C2)c1` (single isomer, unassigned) [Example 2(a)] the value was 2.5 nM. Same read-out and setting: for `COC[C@H](C(=O)Nc1nnc(N[C@@H]2CCN(c3cccnn3)C2)s1)c1cccc(OC)c1` (single isomer, unassigned) [Example 5(a)] the value was 11.7 nM. On the same count and under the same terms, for `CCO[C@H](C(=O)Nc1nnc(N[C@@H]2CCN(c3cccnn3)C2)s1)c1cc(OC)cc(OC)c1` (single isomer, unassigned) [Example 6(a)] the value was 2.2 nM. With `COC1CN(c2cccc([C@H](OC)C(=O)Nc3nnc(N[C@@H]4CCN(c5ccc(F)nn5)C4)s3)c2)C1` (single isomer, unassigned) [Example 9(a)], the IC50 came to 4.9 nM.

Turning to `COC1CN(c2cccc([C@H](OC)C(=O)Nc3nnc(N[C@@H]4CCN(c5ccc(C)nn5)C4)s3)c2)C1` (single isomer, unassigned) [Example 12(a)], the half-inhibitory concentration (IC50) was found to be 32.9 nM. For `CCO[C@H](C(=O)Nc1nnc(N[C@@H]2CCN(c3cccnn3)C2)s1)c1cccc(OC(F)F)c1` (single isomer, unassigned) [Example 17(a)], the 50% inhibitory concentration (IC50) was 1.56 nM. The same measure, in the same setting: for `CCO[C@H](C(=O)Nc1nnc(N[C@@H]2CCN(c3cccnn3)C2)s1)c1cccc(OC(F)(F)F)c1` (single isomer, unassigned) [Example 19(a)] the value was 2.61 nM; for `CO[C@H](C(=O)Nc1nnc(N[C@@H]2CCN(c3cccnn3)C2)s1)c1ccc(F)c(OC(F)(F)F)c1` (single isomer, unassigned) [Example 20(a)], 6.57 nM.
